Values of other authors in patent publication US20040202615A1, “Melt-processed powder containing particles' repulsion agent, evaporation retardant, and means for benefit to plant cultivation and/or animal husbandry” (priority 2003, published 2004).

Tested on: natural living organisms in water
Conditions: active ingredient level 0.04-1.0% in plastic pool and pit liners

**Q.** For CCCCCCCCn1sccc1=O [2-o-octyl-4-isothiazolin-3-one], which “slowing of degradation of plastic liners by natural living organisms” value is on record?
**A.** significantly slows down their degradation
